Measured values taken from ChEMBL document CHEMBL5104094, “Chemistry, biosynthesis and biological activity of terpenoids and meroterpenoids in bacteria and fungi isolated from different marine habitats” (Eur J Med Chem, 2021).
Converted amounts (≈) assume the structure as drawn.

What was measured:
SF-268 = test: Cytotoxicity against human SF-268 cells assessed as cell growth inhibition incubated for 72 hrs by SRB assay; format: functional, cell-based; settings: SF-268, 72 h
MCF7 = test: Cytotoxicity against human MCF7 cells assessed as cell growth inhibition incubated for 72 hrs by SRB assay; format: functional, cell-based; settings: MCF7, 72 h
HepG2 = test: Cytotoxicity against human HepG2 cells assessed as cell growth inhibition incubated for 72 hrs by SRB assay; format: functional, cell-based; settings: HepG2, 72 h
A549 [1] = test: Cytotoxicity against human A549 cells assessed as cell growth inhibition incubated for 72 hrs by SRB assay; format: functional, cell-based; settings: A549, 72 h
[2] = Cytotoxicity against human H7402 cells assessed as cell growth inhibition incubated for 24 hrs by MTT assay; format: functional, cell-based; settings: H7402, 24 h
Candida albicans [3] = test: Antifungal activity against Candida albicans assessed as fungal growth inhibition by microbroth dilution method; format: functional
HCT-116 [4] = test: Cytotoxicity against human HCT-116 cells assessed as cell growth inhibition by MTT assay; format: functional, cell-based
HCT-116 [5] = test: Cytotoxicity against human HCT-116 cells assessed as cell growth inhibition incubated for 72 hrs by Cell Titer Glo assay; format: functional, cell-based; settings: HCT-116, 72 h
[6] = Cytotoxicity against human BJ cells assessed as cell growth inhibition incubated for 72 hrs by Cell Titer Glo assay relative to control; format: toxicity, cell-based
Staphylococcus aureus = test: Antimicrobial activity against Staphylococcus aureus assessed as microbial growth inhibition micro broth dilution assay; format: functional, organism-based
Bacillus subtilis = test: Antimicrobial activity against Bacillus subtilis assessed as microbial growth inhibition micro broth dilution assay; format: functional, organism-based
Candida albicans [7] = test: Antimicrobial activity against Candida albicans assessed as microbial growth inhibition micro broth dilution assay; format: functional, organism-based
Candida parapsilosis = test: Antimicrobial activity against Candida parapsilosis assessed as microbial growth inhibition micro broth dilution assay; format: functional, organism-based; settings: Lodderomyces parapsilosis
Cryptococcus neoformans = test: Antimicrobial activity against Cryptococcus neoformans assessed as microbial growth inhibition micro broth dilution assay; format: functional, organism-based
HCT-116 [8] = test: Cytotoxicity against human HCT-116 cells assessed as lethal dose; format: functional; settings: read-out: LD50 (the source's name)
NCI-H460 [9] = test: Cytotoxicity against human NCI-H460 cells assessed as cell growth inhibition incubated for 48 hrs by MTT assay; format: functional, cell-based; settings: NCI-H460, 48 h
NCI-H460 [10] = test: Induction of apoptosis in human NCI-H460 cells assessed as fold increase in […] at 35 uM incubated for 48 hrs by Annexin V-FITC/PI staining based flow cytometry; format: functional
RAW264.7 = test: Inhibition of NO production in LPS-stimulated mouse RAW264.7 cells at 10 uM relative to control; format: functional
NCI-H460 [11] = test: Cytotoxicity against human NCI-H460 assessed as inhibition of cell viability incubated for 48 hrs by MTT assay; format: functional, cell-based; settings: NCI-H460, 48 h
NCI-H446 = test: Cytotoxicity against human NCI-H446 assessed as inhibition of cell viability incubated for 48 hrs by MTT assay; format: functional, cell-based; settings: NCI-H446, 48 h
HL-60 [12] = test: Cytotoxicity against human HL-60 cells assessed as cell growth inhibition by MTT assay; format: functional, cell-based
A549 [13] = test: Cytotoxicity against human A549 cells assessed as cell growth inhibition by SRB assay; format: functional, cell-based
HL-60 [14] = test: Cytotoxicity against human HL-60 cells assessed as cell growth inhibition; format: functional, cell-based
Bel-7402 = test: Cytotoxicity against human Bel-7402 cells assessed as cell growth inhibition; format: functional, cell-based
SMMC-7721 [15] = test: Cytotoxicity against human SMMC-7721 cells assessed as cell growth inhibition incubated for 24 hrs by CCK8 assay; format: functional, cell-based; settings: SMMC-7721, 24 h
SMMC-7721 [16] = test: Cytotoxicity against human SMMC-7721 cells assessed as cell growth inhibition incubated for 48 hrs by CCK8 assay; format: functional, cell-based; settings: SMMC-7721, 48 h
[17] = molecular target: Phosphotyrosine-protein phosphatase PTPB (Mycobacterium tuberculosis, UniProt P96830); test: Inhibition of N-terminal His6-tagged full-length Mycobacterium tuberculosis H37Rv PTPB expressed in Escherichia coli BL21 (DH3) using fluorogenic phosphatase substrate by fluorescence based assay
Phosphotyrosine-protein phosphatase PTPB, sequence (P96830 whole entry): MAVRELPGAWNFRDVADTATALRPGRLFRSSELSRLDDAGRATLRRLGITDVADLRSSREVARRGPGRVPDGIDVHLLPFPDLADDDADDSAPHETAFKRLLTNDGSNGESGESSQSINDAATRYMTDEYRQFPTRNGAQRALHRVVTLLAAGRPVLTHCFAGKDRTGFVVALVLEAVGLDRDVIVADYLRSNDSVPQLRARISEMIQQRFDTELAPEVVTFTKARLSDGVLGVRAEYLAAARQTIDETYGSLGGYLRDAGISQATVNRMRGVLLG

With `CC1=CC[C@H](C(C)(C)O)[C@H]2C[C@]3(C)Oc4cc(O)cc(C)c4C[C@@H]3C[C@H]12` as the compound, how does the IC50 (SF-268) read?
The IC50 was 20 µM.

And the IC50 (MCF7)?
The IC50 was 20 µM.

And the IC50 (HepG2)?
The IC50 was 20 µM.

What about the IC50 (A549 [1]) of the same compound?
The IC50 was 20 µM.

Which IC50 [2] does the source give for `COC(=O)N[C@H]1[C@@H](C)O[C@@H](O[C@H]2C/C=C(\C)[C@]3(C)CC[C@@H]4[C@@H](O[C@H]5C[C@@H](O[C@H]6C[C@@H](O)[C@@H](O[C@@H]7C[C@@H](O)[C@@H](OC)[C@H](C)O7)[C@H](C)O6)C[C@H](C)O5)[C@@H](C)C[C@H](C)[C@H]4[C@]3(C)C(=O)C3C(=O)OC4(C[C@@H](C)C(CO)=C[C@H]4/C=C/2C)C3=O)C[C@]1(C)[N+](=O)[O-]` (some centres not stated) here?
The IC50 was 0.6 µM.

Which MIC (Candida albicans [3]) does the source give for `CC1=C(Cn2c3ccc(Br)c(=O)c-3nc3ccccc32)CCC(C)(C)C1` here?
Its MIC is 0.95 µM.

What about the IC50 (HCT-116 [4]) of the same compound?
Its IC50 is 0.049 µM.

Which IC50 (HCT-116 [5]) does the source give for `CC1(C)CCC[C@]2(C)[C@H]3Cc4c(c(O)c(O)c5nc(C(=O)O)ccc45)O[C@]3(C)CC[C@@H]12` here?
The IC50 was 10 µM.

And the inhibition at 72 h [6]?
Its inhibition at 72 h is 43%.

For `CC1=CC[C@@](O)([C@@]2(C)CCC(=O)O2)C[C@@H]1O`, which IC50 (Staphylococcus aureus) is on record?
The IC50 was 3 µg/mL.

What about the IC50 (Bacillus subtilis) of the same compound?
Its IC50 is 3 µg/mL.

And the IC50 (Candida albicans [7])?
The IC50 was 3 µg/mL.

What about the IC50 (Candida parapsilosis) of the same compound?
Its IC50 is 3 µg/mL.

And the IC50 (Cryptococcus neoformans)?
Its IC50 is 3 µg/mL.

For `COc1cc(OC)c2c(c1)[C@H]([C@H](O)/C=C(\C)CC[C@@H]1C(C)=CC[C@@H]3C(C)(C)CCC[C@@]13C)CCC2=O`, which CC50 (HCT-116 [8]) is on record?
Its CC50 is 2 µg/mL (≈ 4.04 µM).

Which results are given for `C[C@]12C3=CC(=O)OCC3=C[C@H]3OC(=O)[C@@](C)(C=C[C@H]1O)[C@H]32` [ASPEROLIDE A]?
IC50 (NCI-H460 [9]): 17.7 µM; fold change (FC) (NCI-H460 [10]): 2.9

Which inhibition at 10 µM (RAW264.7) does the source give for `CC1=CC(=O)C[C@@]2(C)CC[C@@H](C(C)CO)C[C@H]12` (some centres not stated) here?
The inhibition at 10 µM was 22.5%.

What does the source list for `C[C@@]12C3=CC(=O)OCC3=C[C@H]3OC(=O)[C@](C)([C@H]31)[C@@H](O)[C@H]1O[C@H]12` [WENTILACTONE A]?
IC50 (NCI-H460 [11]): 5.56 µM; IC50 (NCI-H446): 1.9 µM

With `CO[C@]12C=C3[C@@H]4O[C@@H]4[C@H](OC(C)=O)[C@H](C)[C@@]3(C)C[C@]13O[C@]3(C)CO2` as the compound, how does the IC50 (HL-60 [12]) read?
The IC50 was 28.3 µM.

What about the IC50 (A549 [13]) of the same compound?
The IC50 was 5.2 µM.

With `C[C@@H]1C=CC(=O)[C@@]2(C)CC[C@@H]3[C@@H]4[C@@](C)(CC[C@@]4(C)CO)C[C@@]132` as the compound, how does the IC50 (HL-60 [14]) read?
The IC50 was 0.97 µM.

And the IC50 (Bel-7402)?
The IC50 was 0.038 µM.

What does the source list for `C[C@@]12C[C@@H](O)C[C@]3(C)C4=CC(=O)OCC4=C[C@@H](OC1=O)[C@@H]23` [WENTILACTONE B]?
IC50 (SMMC-7721 [15]): 31 µM; IC50 (SMMC-7721 [16]): 19 µM

Which IC50 [17] does the source give for `CC(C)[C@H]1CC[C@@]2(C)CC[C@]3(CO)CC4=C(C(=O)O)CC[C@H]4[C@]4(C)C[C@@H]4[C@H]3[C@H]12` here?
Its IC50 is 18 µM.
